# Test results: patent US20050014811A1, “Substituted benzimidazole compounds and their use for the treatment of cancer” (Aventis Pharma S.A., priority 2001, published 2005)
# How the values were obtained:
# CDK4/CyclinD1 = CDK4/CyclinD1 (Homo sapiens, UniProt P11802); test: CDK4/CyclinD1 Flashplate assay, 96-well format, biotinylated-Rb peptide substrate; format: biochemical
# Procedure, shortened: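 Biotinylated Rb peptide bound to streptavidin Flashplate; CDK4/CyclinD1 (70 ng/well) preincubated 30 min on ice with compound at 10, 3, 1, 0.3 and 0.1 μM final. Reaction with 1 μM cold ATP plus 33P-ATP for 45 min at RT; incorporated 33P counted, duplicates.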
# CDK2/CyclinE = CDK2/CyclinE (Homo sapiens, UniProt P24941); test: CDK2/CyclinE Flashplate assay, 96-well format, biotinylated-Rb peptide substrate; format: biochemical
# Procedure, shortened: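 Biotinylated Rb peptide was captured on streptavidin Flashplates, and CDK2/CyclinE (200 ng/well) was preincubated 30 min on ice with inhibitor at 10, 3, 1, 0.3 or 0.1 μM final. Reactions ran 45 min at RT with 1 μM ATP plus 1 μCi ^33P-ATP. After washing, incorporated ^33P was counted, in duplicate.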
# CDK4/CyclinD1, sequence (P11802 whole entry, species assumed): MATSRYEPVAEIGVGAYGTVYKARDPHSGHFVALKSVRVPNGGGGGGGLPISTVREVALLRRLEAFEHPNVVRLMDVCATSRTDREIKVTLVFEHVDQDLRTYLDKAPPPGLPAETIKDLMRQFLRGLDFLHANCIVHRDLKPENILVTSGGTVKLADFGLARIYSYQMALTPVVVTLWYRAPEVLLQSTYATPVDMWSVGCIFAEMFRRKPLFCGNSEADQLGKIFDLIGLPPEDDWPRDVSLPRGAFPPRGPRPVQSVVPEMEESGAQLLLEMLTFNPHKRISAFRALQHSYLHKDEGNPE
# CDK4/CyclinD1, sequence (P24385 whole entry partner, species assumed): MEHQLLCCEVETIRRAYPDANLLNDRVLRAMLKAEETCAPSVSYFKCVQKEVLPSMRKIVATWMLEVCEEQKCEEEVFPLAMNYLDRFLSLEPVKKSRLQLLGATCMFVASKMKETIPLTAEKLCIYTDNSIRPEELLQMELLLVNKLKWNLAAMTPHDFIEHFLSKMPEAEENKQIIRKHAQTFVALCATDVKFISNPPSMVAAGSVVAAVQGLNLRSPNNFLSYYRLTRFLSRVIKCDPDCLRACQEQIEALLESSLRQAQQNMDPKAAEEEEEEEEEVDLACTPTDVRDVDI
Structure (SMILES),IC50 (CDK4/CyclinD1),IC50 (CDK2/CyclinE),inhibition at 10 µM (CDK4/CyclinD1)
"O=C(NCCCN1CCCC1=O)Nc1nc2cc(OS(=O)(=O)c3ccc(NC4CCCC4)cc3)ccc2[nH]1 [Example 58-ac, 4-Cyclopentylamino-benzenesulfonic acid 2-{3-[3-(2-oxo-pyrrolidin-1-yl)-propyl]-ureido}-1H-benzoimidazol-5-yl ester]",170 nM,13 nM,
"NC(=O)CCNC(=O)Nc1nc2cc(OS(=O)(=O)c3ccc(NC4CCCC4)cc3)ccc2[nH]1 [Example 58-ad, 4-Cyclopentylamino-benzenesulfonic acid 2-[3-(2-carbamoyl-ethyl)-ureido]-1H-benzoimidazol-5-yl ester]",130 nM,16 nM,
"O=C(NCCOCCO)Nc1nc2cc(OS(=O)(=O)c3ccc(NC4CCCC4)cc3)ccc2[nH]1 [Example 58-af, 4-Cyclopentylamino-benzenesulfonic acid 2-{3-[2-(2-hydroxy-ethoxy)-ethyl]-ureido}-1H-benzoimidazol-5-yl ester]",210 nM,180 nM,
"O=C(NCCCN1CCCC1)Nc1nc2cc(OS(=O)(=O)c3ccc(NC4CCCC4)cc3)ccc2[nH]1 [Example 58-ag, 4-Cyclopentylamino-benzenesulfonic acid 2-[3-(3-pyrrolidin-1-yl-propyl)-ureido]-1H-benzoimidazol-5-yl ester]",390 nM,40 nM,
"CCN1CCCC1CNC(=O)Nc1nc2cc(OS(=O)(=O)c3ccc(NC4CCCC4)cc3)ccc2[nH]1 (stereo not shown) [Example 58-ah, 4-Cyclopentylamino-benzenesulfonic acid 2-[3-(1-ethyl-pyrrolidin-2-ylmethyl)-ureido]-1H-benzoimidazol-5-yl ester]",330 nM,30 nM,
"O=C(NCCN1CCCC1)Nc1nc2cc(OS(=O)(=O)c3ccc(NC4CCCC4)cc3)ccc2[nH]1 [Example 58-ai, 4-Cyclopentylamino-benzenesulfonic acid 2-[3-(2-pyrrolidin-1-yl-ethyl)-ureido]-1H-benzoimidazol-5-yl ester]",330 nM,150 nM,
"O=C(NCCN1CCCCC1)Nc1nc2cc(OS(=O)(=O)c3ccc(NC4CCCC4)cc3)ccc2[nH]1 [Example 58-aj, 4-Cyclopentylamino-benzenesulfonic acid 2-[3-(2-piperidin-1-yl-ethyl)-ureido]-1H-benzoimidazol-5-yl ester]",380 nM,370 nM,
"CC(CO)NC(=O)Nc1nc2cc(OS(=O)(=O)c3ccc(NC4CCCC4)cc3)ccc2[nH]1 (stereo not shown) [Example 58-ak, 4-Cyclopentylamino-benzenesulfonic acid 2-[3-(2-hydroxy-1-methyl-ethyl)-ureido]-1H-benzoimidazol-5-yl ester]",180 nM,100 nM,
"CC(C)NCCNC(=O)Nc1nc2cc(OS(=O)(=O)c3ccc(NC4CCCC4)cc3)ccc2[nH]1 [Example 58-al, 4-Cyclopentylamino-benzenesulfonic acid 2-[3-(2-isopropylamino-ethyl)-ureido]-1H-benzoimidazol-5-yl ester]",250 nM,150 nM,
"CCN(CC)CCNC(=O)Nc1nc2cc(OS(=O)(=O)c3ccc(NC4CCCC4)cc3)ccc2[nH]1 [Example 58-am, 4-Cyclopentylamino-benzenesulfonic acid 2-[3-(2-diethylamino-ethyl)-ureido]-1H-benzoimidazol-5-yl ester]",240 nM,80 nM,
"COC(=O)[C@H](CO)NC(=O)Nc1nc2cc(OS(=O)(=O)c3ccc(NC4CCCC4)cc3)ccc2[nH]1 [Example 58-an, 2-{3-[5-(4-Cyclopentylamino-benzenesulfonyloxy)-1H-benzoimidazol-2-yl]-ureido}-3S-hydroxy-propionic acid methyl ester]",200 nM,100 nM,
"O=C(Nc1nc2cc(OS(=O)(=O)c3ccc(NC4CCCC4)cc3)ccc2[nH]1)NC1CCCCC1 [Example 58-b, 4-Cyclopentylamino-benzenesulfonic acid 2-(3-cyclohexyl-ureido)-1H-benzoimidazol-5-yl ester]",,900 nM,70%
"O=C(Nc1nc2cc(OS(=O)(=O)c3ccc(NC4CCCC4)cc3)ccc2[nH]1)NC1CCCC1 [Example 58-c, 4-Cyclopentylamino-benzenesulfonic acid 2-(3-cyclopentyl-ureido)-1H-benzoimidazol-5-yl ester]",,600 nM,60%
"O=C(Nc1cccc(F)c1)Nc1nc2cc(OS(=O)(=O)c3ccc(NC4CCCC4)cc3)ccc2[nH]1 [Example 58-d, 4-Cyclopentylamino-benzenesulfonic acid 2-[3-(3-fluoro-phenyl)-ureido]-1H-benzoimidazol-5-yl ester]",,1600 nM,84%
"O=C(NCCO)Nc1nc2cc(OS(=O)(=O)c3ccc(NC4CCCC4)cc3)ccc2[nH]1 [Example 58-e, 4-Cyclopentylamino-benzenesulfonic acid 2-[3-(2-hydroxy-ethyl)-ureido]-1H-benzoimidazol-5-yl ester]",100 nM,40 nM,
"O=C(Nc1ccc(F)cc1)Nc1nc2cc(OS(=O)(=O)c3ccc(NC4CCCC4)cc3)ccc2[nH]1 [Example 58-f, 4-Cyclopentylamino-benzenesulfonic acid 2-[3-(4-fluoro-phenyl)-ureido]-1H-benzoimidazol-5-yl ester]",,700 nM,91%
"O=C(NCc1ccccc1Cl)Nc1nc2cc(OS(=O)(=O)c3ccc(NC4CCCC4)cc3)ccc2[nH]1 [Example 58-g, 4-Cyclopentylamino-benzenesulfonic acid 2-[3-(2-chloro-benzyl)-ureido]-1H-benzoimidazol-5-yl ester]",,1000 nM,69%
"O=C(Nc1nc2cc(OS(=O)(=O)c3ccc(NC4CCCC4)cc3)ccc2[nH]1)N1CCC1 [Example 58-i, 4-Cyclopentylamino-benzenesulfonic acid 2-[(azetidine-1-carbonyl)-amino]-1H-benzoimidazol-5-yl ester]",,300 nM,81%
"O=C(NCc1cccnc1)Nc1nc2cc(OS(=O)(=O)c3ccc(NC4CCCC4)cc3)ccc2[nH]1 [Example 58-j, 4-Cyclopentylamino-benzenesulfonic acid 2-(3-pyridin-3-ylmethyl-ureido)-1H-benzoimidazol-5-yl ester]",500 nM,9 nM,
"CN1CCN(CCCNC(=O)Nc2nc3cc(OS(=O)(=O)c4ccc(NC5CCCC5)cc4)ccc3[nH]2)CC1 [Example 58-k, 4-Cyclopentylamino-benzenesulfonic acid 2-{3-[3-(4-methyl-piperazin-1-yl)-propyl]-ureido}-1H-benzoimidazol-5-yl ester]",500 nM,40 nM,
"O=C(NCc1ccccc1)Nc1nc2cc(OS(=O)(=O)c3ccc(NC4CCCC4)cc3)ccc2[nH]1 [Example 58-l, 4-Cyclopentylamino-benzenesulfonic acid 2-(3-benzyl-ureido)-1H-benzoimidazol-5-yl ester]",1000 nM,30 nM,
"COC(=O)CCCNC(=O)Nc1nc2cc(OS(=O)(=O)c3ccc(NC4CCCC4)cc3)ccc2[nH]1 [Example 58-m, 4-{3-[5-(4-Cyclopentylamino-benzenesulfonyloxy)-1H-benzoimidazol-2-yl]-ureido}-butyric acid methyl ester]",240 nM,30 nM,
"COC(=O)CNC(=O)Nc1nc2cc(OS(=O)(=O)c3ccc(NC4CCCC4)cc3)ccc2[nH]1 [Example 58-o, 4-{3-[5-(4-Cyclopentylamino-benzenesulfonyloxy)-1H-benzoimidazol-2-yl]-ureido}-acetic acid methyl ester]",29 nM,20 nM,
"COC(=O)[C@@H]1CCCN1C(=O)Nc1nc2cc(OS(=O)(=O)c3ccc(NC4CCCC4)cc3)ccc2[nH]1 [Example 58-r, 1-[5-(4-Cyclopentylamino-benzenesulfonyloxy)-1H-benzoimidazol-2S-yl-carbamoyl]-pyrrolidine-2-carboxylic acid methyl ester]",,20 nM,80%
"NC(=O)CNC(=O)Nc1nc2cc(OS(=O)(=O)c3ccc(NC4CCCC4)cc3)ccc2[nH]1 [Example 58-s, 4-Cyclopentylamino-benzenesulfonic acid 2-(3-carbamoylmethyl-ureido)-1H-benzoimidazol-5-yl ester]",12 nM,20 nM,
"O=C(NCC1CCNCC1)Nc1nc2cc(OS(=O)(=O)c3ccc(NC4CCCC4)cc3)ccc2[nH]1 [Example 58-u, 4-Cyclopentylamino-benzenesulfonic acid 2-(3-piperidin-4-ylmethyl-ureido)-1H-benzoimidazol-5-yl ester]",290 nM,10 nM,
"O=C(NCCN1CCOCC1)Nc1nc2cc(OS(=O)(=O)c3ccc(NC4CCCC4)cc3)ccc2[nH]1 [Example 58-v, 4-Cyclopentylamino-benzenesulfonic acid 2-[3-(2-morpholin-4-yl-ethyl)-ureido]-1H-benzoimidazol-5-yl ester]",110 nM,100 nM,
"CC(C)(N)CNC(=O)Nc1nc2cc(OS(=O)(=O)c3ccc(NC4CCCC4)cc3)ccc2[nH]1 [Example 58-w, 4-Cyclopentylamino-benzenesulfonic acid 2-[3-(2-amino-2-methyl-propyl)-ureido]-1H-benzoimidazol-5-yl ester]",190 nM,250 nM,
"O=C(Nc1nc2cc(OS(=O)(=O)c3ccc(NC4CCCC4)cc3)ccc2[nH]1)N[C@H]1CC[C@H](O)CC1 [Example 58-x, 4-Cyclopentylamino-benzenesulfonic acid 2-[3-(4trans-hydroxy-cyclohexyl)-ureido]-1H-benzoimidazol-5-yl ester]",310 nM,40 nM,
